Reference: patent EP0258134A1, “Therapeutical compositions containing benzhydryl thiomethane derivatives” (LABORATOIRE L. LAFON, priority 1986, dated 1988)

What was measured:
rat [1] = test: Global behaviour and reactivities, rat, i.p.; type: in vivo
Procedure: (§1) Le composé CRL 41 334, en suspension dans une solution de gomme arabique, a été administré par voie intrapéritonéale sous un volume de 20 ml/kg chez la souris (mâle, NMRI, C.E.R. Janvier) et de 5 ml/kg chez le rat (mâle, CD₁; SPRAGUE DAWLEY, Charles River).
Des lots de 3 animaux sont observés avant, puis 15 mn, 30 mn, 1h, 2h, 3h et 24 heures après l'administration du composé CRL 41 334.
(§2) Le CRL 40 956, en suspension dans une solution de gomme arabique a été administré par voie intrapéritonéale sous un volume de 20 ml/kg chez la souris (mâle, NMRI, Evic Céba) et de 5 ml/kg chez le rat (mâle, CD₁, Sprague Dawley, Charles River).
Des lots de 3 animaux sont observés avant, puis 15 mn, 30 mn, 1 h, 2 h, 3 h et 24 heures après l'administration de CRL 40 956.

rat [2] = test: Interaction with apomorphine, rat; type: in vivo; details: 16 et 64 mg/kg, apomorphine 0,5 mg/kg s.c.
Procedure: Le composé CRL 41 334 est administré à des lots de 6 rats une demi-heure avant l'injection sous-cutanée de 0,5 mg/kg d'apomorphine.
Le CRL 40 956 est administré à des lots de 6 rats une demi-heure avant l'injection sous cutanée de 0,5 mg/kg d'apomorphine.

souris [3] = test: Pretoxicity, i.p., 3 mice per dose; type: in vivo
Procedure: as §1
I - PRETOXICITE ( 3 souris par dose)
Le CRL 41 055, en suspension dans une solution de gomme arabique, a été administré par voie intrapéritonéale sous un volume de 20 ml/kg chez la souris (mâle, NMRI, Evic Ceba).
Prétoxicite (3 souris par dose)
as §2
Prétoxicité ( 3 souris par dose)

souris [4] = test: Electroshock; type: in vivo; details: 128 mg/kg
Excerpt: (§3) Le test est pratiqué sur des lots de 10 souris, une demi-heure après l'administration du composé CRL 41 334.

souris [5] = test: Four-plate test; type: in vivo; details: half an hour after administration
Excerpt: as §3

souris [6] = test: Spontaneous motility (actimeter); type: in vivo
Procedure: Après avoir reçu le composé CRL 41 334, les souris sont placées en actimètre où leur motilité est enregistrée pendant 30 minutes.
Une demi-heure après avoir reçu le CRL 41 055, les souris (6 par dose, 12 témoins) sont placées en actimètre où leur motilité est enregistrée pendant 30 minutes.
Une demi-heure après avoir reçu le CRL 40 956, les souris (6 par dose, 12 témoins) sont placées en actimètre ou leur motilité est enregistrée pendant 30 minutes.

souris [7] = test: Interaction with apomorphine, mouse; type: in vivo
Procedure: Des lots de 6 souris reçoivent le composé CRL 41 334 une demi-heure avant l'injection sous-cutanée d'apomorphine, à la dose de 1 ou 16 mg/kg. • a) Apomorphine 1 mg/kg • b) Apomorphine 16 mg/kg

souris [8] = test: Intergroup aggressiveness; type: in vivo; details: 32 et 128 mg/kg
Procedure: Après avoir séjourné pendant 3 semaines dans chacune des moitiés d'une cage séparées par une cloison opaque, des groupes de 3 souris reçoivent le composé CRL 41 334. Une demi-heure plus tard, les deux groupes d'une même cage sont réunis par retrait de la cloison et on note le nombre de combats qui surviennent en 10 minutes. Le test est pratiqué pour moitié sur les souris habituelles (NMRI, C.E.R. Janvier) et pour moitié sur des souris NMRI (Iffa Credo).
Après avoir séjourné pendant 3 semaines dans chacune des moitiés d'une cage séparée par une cloison opaque, des groupes de 3 souris reçoivent le CRL 40 956. Une demi-heure plus tard, les deux groupes d'une même cage sont réunis par retrait de la cloison et on note le nombre de combats qui surviennent en 10 minutes.

souris [9] = test: Traction test; type: in vivo; details: half an hour after administration
Excerpt: as §3

souris [10] = test: Behavioural despair (forced immersion); type: in vivo; details: souris, 8, 32 et 128 mg/kg
Excerpt: Une demi-heure après avoir reçu le composé CRL 41 334, des lots de 6 souris (mâles, CD₁, Charles River) sont placés dans un bécher rempli d'eau sur une hauteur de 6 cm. On note la durée totale d'immobilité entre la 2ème et la 6ème minutes suivant l'immersion.
Une demi-heure après avoir reçu le CRL 40 956, des lots de 10 souris (mâles CD₁ Charles River) sont plongées dans une enceinte réduite remplie d'eau sur une hauteur de 6 cm. On note la durée totale d'immobilité entre la 2ème et la 6ème minute suivant l'immersion.

souris [11] = test: Motility reduced by hypoxic aggression; type: in vivo
Procedure: Une demi-heure après avoir reçu le composé CRL 41 334, les souris (10 par dose, 20 témoins) sont soumises à une anoxie hypobare aigüe (dépression de 60 mmHg en 90 secondes, détente de 45 secondes), puis elles sont placées en actimètre où leur motilité est enregistrèe pendant 10 minutes.

Solubility in water = type: physicochemical; details: water
Excerpt: Le composé est une poudre blanche, insoluble dans l'éther de pétrole, soluble dans l'éther, l'acé-tate d'éthyle et les alcools. Sa solubilité dans l'eau est inférieure à 0,1%.

souris [12] = test: Motility reduced by habituation to the enclosure; type: in vivo; details: dès la dose de 2 mg/kg
Procedure: Après 18 heures de séjour dans les actimè-tres, les souris (6 par dose, 12 témoins) reçoivent le composé CRL 41 334. Elles sont aussitôt replacées dans leurs enceintes respectives et, une demi-heure plus tard, on enregistre leur motilité pendant 30 minutes.
Après 18 heures de séjour dans les actimètres, les souris (6 par dose, 12 émoins) reçoivent le CRL 41 055. Elles sontaussitôt replacées dans leurs enceintes respectives et, une demi-heure plus tard, on enregistre leur motilité pendant 30 minutes.

NC(=O)CSC(c1ccc(F)cc1)c1ccc(F)cc1 [CRL 41 334, 2-(4,4ʹ-difluorobenzhydrylthio)acétamide]
comportement et réactivités (rat [1]; rat, 64 mg/kg i.p.): sédation pendant 15 minutes | diamètre pupillaire (rat [1]; rat, 64 mg/kg i.p., à 1 heure): mydriase très modérée et brève | comportement, réactivités, variation du diamètre pupillaire et de la température rectale (rat [1]; rat, 1, 4 et 16 mg/kg i.p.): comparables à ceux du lot témoin | stéréotypies induites par l'apomorphine (rat [2]): potentialise | symptômes (souris [3]; 128 mg/kg i.p.): sédation, puis excitation 2 heures après | symptômes (souris [3]; 256 mg/kg i.p.): sédation suivie d'excitation 2 heures après l'injection | convulsions (souris [3]; 256 mg/kg i.p., à 15 minutes): 3/3 | symptômes (souris [3]; 512 mg/kg i.p.): démarche titubante | convulsions (souris [3]; 512 mg/kg i.p., pendant les 10 premières minutes): 3/3 | mortalité (souris [3]; 512 mg/kg i.p., 1/3 en 15 minutes et 2/3 en 24 heures): 3/3 | effets convulsivants de l'électrochoc (souris [4]): s'oppose faiblement aux effets convulsivants | effets létaux de l'électrochoc (souris [4]): sans modifier les effets létaux | nombre de passages punis (souris [5]): ne modifie pas | motilité spontanée (souris [6]; souris, 128 mg/kg, 30 minutes avant passage dans l'actimètre): cet effet n'apparaît plus | motilité spontanée (souris [6]; souris, 8, mais surtout 32 et 128 mg/kg, 2 heures avant passage dans l'actimètre): augmentation de la motilité spontanée | motilité spontanée (souris [6]; souris, 32 et 64 mg/kg, 30 minutes avant passage dans l'actimètre): augmentation de la motilité | hypothermie induite par l'apomorphine (souris [7]; 128 mg/kg, apomorphine 1 mg/kg s.c.): aggrave l'hypothermie induite par l'apomorphine | température (souris [7]; 128 mg/kg, compound alone): entraîne une hypothermie | comportements de verticalisation et de stéréotypies (souris [7]; apomorphine 1 ou 16 mg/kg s.c.): NE SONT PAS MODIFIES | nombre de combats (souris [8]): diminue le nombre de combats | incapacité motrice (souris [9]): ne provoque pas d'incapacité motrice majeure | durée de l'immobilité (souris [10]): diminue la durée de l'immobilité | récupération motrice après anoxie hypobare (souris [11]; 32 et 128 mg/kg): amélioration est importante | récupération motrice après anoxie hypobare (souris [11]; dès la dose de 2mg/kg): amélioration de la récupération | solubility (Solubility in water): < 1 mg/mL | activité motrice chez la souris habituée à son enceinte (souris [12]): reprise nette de l'activité motrice
